Data reported in article PMC12150326 (The Journal of Organic Chemistry, 2025).
Read-outs that look alike come from different tables or passages of the source.

Legend:
Type in all cases: cell-based, human
786-0 = tested on: 786-0
Summary of the method: (§1)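 Each atropisomer and iso-atropisomer was submitted to the NCI screen and run at five tenfold dilutions from 100 μM down to 0.01 μM.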

A549/ATCC = tested on: A549/ATCC
Summary of the method: as §1

BT-549 = tested on: BT-549
Summary of the method: as §1

CAKI-1 = tested on: CAKI-1
Summary of the method: as §1

COLO 205 = tested on: COLO 205
Summary of the method: as §1

EKVX = tested on: EKVX
Summary of the method: (§2)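 Screening via NCI-60, five log concentrations from 0.01 to 100 μM; TGI compared by COMPARE with reference tubulin agents.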

HCC-2998 = tested on: HCC-2998
Summary of the method: as §1

HCT-15 = tested on: HCT-15
Summary of the method: as §1

HT29 = tested on: HT29
Summary of the method: as §1

K-562 = tested on: K-562
Summary of the method: as §1

LOX IMVI = tested on: LOX IMVI
Summary of the method: as §2

MCF7 = tested on: MCF7
Summary of the method: as §1

MDA-MB-468 = tested on: MDA-MB-468
Summary of the method: as §1

NCI-H226 = tested on: NCI-H226
Summary of the method: as §1

NCI-H460 = tested on: NCI-H460
Summary of the method: as §1

NCI-H522 = tested on: NCI-H522
Summary of the method: as §1

NCI/ADR-RES = tested on: NCI/ADR-RES
Summary of the method: as §1

OVCAR-4 = tested on: OVCAR-4
Summary of the method: as §1

OVCAR-8 = tested on: OVCAR-8
Summary of the method: as §1

RPMI-8226 = tested on: RPMI-8226
Summary of the method: as §1

SF-539 = tested on: SF-539
Summary of the method: as §1

SN12C = tested on: SN12C
Summary of the method: as §1

SNB-19 = tested on: SNB-19
Summary of the method: as §2

SNB-75 = tested on: SNB-75
Summary of the method: as §1

SR = tested on: SR
Summary of the method: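 TGI-based COMPARE analysis set the response profiles against historical NCI-60 data for established antitubulin compounds, after testing at five log-spaced doses (0.01–100 μM) in the 60-line screen.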

SW-620 = tested on: SW-620
Summary of the method: as §1

UO-31 = tested on: UO-31
Summary of the method: as §1

## COc1cc(C)c(-c2ccc(OC)c(=O)cc2C)c(OC)c1OC (single isomer, unassigned) [(aR)-6]
786-0
  Log10GI50: -5.35 Molar
  Log10LC50: > -4.00 Molar
  Log10TGI: > -4.00 Molar
786-0; Homo sapiens
  GI50: 4470 nM
786-0; listed as (aR)-DM-MTC
  Log10GI50: -5.35 Molar
A549/ATCC
  Log10GI50: -5.42 Molar
  Log10LC50: > -4.00 Molar
  Log10TGI: > -4.00 Molar
A549/ATCC; Homo sapiens
  GI50: 3800 nM
A549/ATCC; listed as (aR)-DM-MTC
  Log10GI50: -5.42 Molar
BT-549
  Log10GI50: -5.69 Molar
  Log10LC50: > -4.00 Molar
  Log10TGI: -5.18 Molar
BT-549; Homo sapiens
  GI50: 2040 nM
BT-549; listed as (aR)-DM-MTC
  Log10GI50: -5.69 Molar
CAKI-1
  Log10GI50: -6.03 Molar
  Log10LC50: > -4.00 Molar
  Log10TGI: > -4.00 Molar
CAKI-1; Homo sapiens
  GI50: 930 nM
CAKI-1; listed as (aR)-DM-MTC
  Log10GI50: -6.03 Molar
COLO 205
  Log10GI50: -5.76 Molar
  Log10LC50: -4.74 Molar
  Log10TGI: -5.35 Molar
COLO 205; Homo sapiens
  GI50: 1740 nM
COLO 205; listed as (aR)-DM-MTC
  Log10GI50: -5.76 Molar
EKVX
  Log10GI50: -5.18 Molar
  Log10LC50: > -4.00 Molar
  Log10TGI: > -4.00 Molar
EKVX; Homo sapiens
  GI50: 6610 nM
EKVX; listed as (aR)-DM-MTC
  Log10GI50: -5.18 Molar
HCC-2998
  Log10GI50: -5.55 Molar
  Log10LC50: > -4.00 Molar
  Log10TGI: > -4.00 Molar
HCC-2998; Homo sapiens
  GI50: 2820 nM
HCC-2998; listed as (aR)-DM-MTC
  Log10GI50: -5.55 Molar
HCT-15
  Log10GI50: -6.17 Molar
  Log10LC50: > -4.00 Molar
  Log10TGI: > -4.00 Molar
HCT-15; Homo sapiens
  GI50: 680 nM
HCT-15; listed as (aR)-DM-MTC
  Log10GI50: -6.17 Molar
HT29
  Log10GI50: -5.73 Molar
  Log10LC50: > -4.00 Molar
  Log10TGI: -5.02 Molar
HT29; Homo sapiens, HT-29
  GI50: 1860 nM
HT29; listed as (aR)-DM-MTC
  Log10GI50: -5.73 Molar
K-562
  Log10GI50: -6.31 Molar
  Log10LC50: > -4.00 Molar
  Log10TGI: > -4.00 Molar
K-562; Homo sapiens, K562
  GI50: 490 nM
K-562; listed as (aR)-DM-MTC
  Log10GI50: -6.31 Molar
LOX IMVI
  Log10GI50: -5.69 Molar
  Log10LC50: > -4.00 Molar
  Log10TGI: > -4.00 Molar
LOX IMVI; Homo sapiens
  GI50: 2040 nM
LOX IMVI; listed as (aR)-DM-MTC
  Log10GI50: -5.69 Molar
MCF7
  Log10GI50: -6.11 Molar
  Log10LC50: > -4.00 Molar
  Log10TGI: > -4.00 Molar
MCF7; Homo sapiens
  GI50: 780 nM
MCF7; listed as (aR)-DM-MTC
  Log10GI50: -6.11 Molar
MDA-MB-468
  Log10GI50: -5.97 Molar
  Log10LC50: > -4.00 Molar
  Log10TGI: > -4.00 Molar
MDA-MB-468; Homo sapiens
  GI50: 1070 nM
MDA-MB-468; listed as (aR)-DM-MTC
  Log10GI50: -5.97 Molar
NCI-H226
  Log10GI50: -5.41 Molar
  Log10LC50: > -4.00 Molar
  Log10TGI: > -4.00 Molar
NCI-H226; Homo sapiens
  GI50: 3890 nM
NCI-H226; listed as (aR)-DM-MTC
  Log10GI50: -5.41 Molar
NCI-H460
  Log10GI50: -5.55 Molar
  Log10LC50: > -4.00 Molar
  Log10TGI: > -4.00 Molar
NCI-H460; Homo sapiens
  GI50: 2820 nM
NCI-H460; listed as (aR)-DM-MTC
  Log10GI50: -5.55 Molar
NCI-H522
  Log10GI50: -5.73 Molar
  Log10LC50: > -4.00 Molar
  Log10TGI: -5.27 Molar
NCI-H522; Homo sapiens
  GI50: 1860 nM
NCI-H522; listed as (aR)-DM-MTC
  Log10GI50: -5.73 Molar
NCI/ADR-RES
  Log10GI50: -5.76 Molar
  Log10LC50: > -4.00 Molar
NCI/ADR-RES; Homo sapiens
  GI50: 1740 nM
NCI/ADR-RES; listed as (aR)-DM-MTC
  Log10GI50: -5.76 Molar
OVCAR-4
  Log10GI50: -4.35 Molar
  Log10LC50: > -4.00 Molar
  Log10TGI: > -4.00 Molar
OVCAR-4; Homo sapiens
  GI50: 44700 nM
OVCAR-4; listed as (aR)-DM-MTC
  Log10GI50: -4.35 Molar
OVCAR-8
  Log10GI50: -5.47 Molar
  Log10LC50: > -4.00 Molar
  Log10TGI: > -4.00 Molar
OVCAR-8; Homo sapiens
  GI50: 3390 nM
OVCAR-8; listed as (aR)-DM-MTC
  Log10GI50: -5.47 Molar
RPMI-8226
  Log10GI50: -5.39 Molar
  Log10LC50: > -4.00 Molar
  Log10TGI: > -4.00 Molar
RPMI-8226; Homo sapiens
  GI50: 4070 nM
RPMI-8226; listed as (aR)-DM-MTC
  Log10GI50: -5.39 Molar
SF-539
  Log10GI50: -5.65 Molar
  Log10LC50: > -4.00 Molar
  Log10TGI: > -4.00 Molar
SF-539; Homo sapiens
  GI50: 2240 nM
SF-539; listed as (aR)-DM-MTC
  Log10GI50: -5.65 Molar
SN12C
  Log10GI50: -5.46 Molar
  Log10LC50: > -4.00 Molar
  Log10TGI: > -4.00 Molar
SN12C; Homo sapiens
  GI50: 3470 nM
SN12C; listed as (aR)-DM-MTC
  Log10GI50: -5.46 Molar
SNB-19
  Log10GI50: -5.53 Molar
  Log10LC50: > -4.00 Molar
  Log10TGI: > -4.00 Molar
SNB-19; Homo sapiens
  GI50: 2950 nM
SNB-19; listed as (aR)-DM-MTC
  Log10GI50: -5.53 Molar
SNB-75
  Log10GI50: -6.04 Molar
  Log10LC50: > -4.00 Molar
SNB-75; Homo sapiens
  GI50: 910 nM
SNB-75; listed as (aR)-DM-MTC
  Log10GI50: -6.04 Molar
SR
  Log10GI50: -6.44 Molar
  Log10LC50: > -4.00 Molar
  Log10TGI: > -4.00 Molar
SR; Homo sapiens
  GI50: 360 nM
SR; listed as (aR)-DM-MTC
  Log10GI50: -6.44 Molar
SW-620
  Log10GI50: -5.91 Molar
  Log10LC50: > -4.00 Molar
  Log10TGI: > -4.00 Molar
SW-620; Homo sapiens
  GI50: 1230 nM
SW-620; listed as (aR)-DM-MTC
  Log10GI50: -5.91 Molar
UO-31
  Log10GI50: -5.16 Molar
  Log10LC50: > -4.00 Molar
  Log10TGI: > -4.00 Molar
UO-31; Homo sapiens
  GI50: 6920 nM
UO-31; listed as (aR)-DM-MTC
  Log10GI50: -5.16 Molar
